pKi: −log10 of the molar value.
How the values were obtained:
Assay type in all cases: biochemical
[1] = target: T1, Human lung tryptase; test: Human lung tryptase inhibition, chromogenic GPR-pNA substrate
T1 construct: Human lung tryptase purchased from Cortex Biochem (San Leandro, Calif.) was purified further on a Superdex 200 gel-filtration column
Method: (§1) Protease inhibition was assayed according to published procedures with minor modifications using various proteases and specific chromogenic peptide p-nitroanilide substrates. Assays were performed in Costar ultra-low cluster 96-well microtiter plate (Costar Corning Corp., Cambridge Mass.). Each protease was incubated with various concentrations of the test compound for 15 min. at 37° C. or as otherwise indicated, in specific assay buffer, and the residual activity was then measured by addition of the substrate. p-Nitroaniline produced by the proteolysis was determined by measuring the change in absorbance at 405 nm on a SpectraMAX 340 plate reader (Molecular devices, Sunnyvale, Calif.).
(§2) 1. The inhibition constant, Ki is calculated from individual data points using the equation for a tight-binding inhibitor (See Beith, “Proteinase Inhibitors-Proceedings of 2nd Int. Res. Conference”, Fritz, et al. eds., New York, p.4463-4469 (1974)):
vi/vo=[((Ki′+[I]+[E]o)^2−4[I]o[E]o)^½(Ki′+[I]o−[E]o)]/2[E]o
where Ki′ is apparent inhibition constant; vi and vo are the inhibited and uninhibited rates, respectively; [I]o and [E]o are the total concentrations of inhibitor and enzyme, respectively.
[note: [E]o is determined by active site titration of enzyme]
(§3) The Ki values are obtained by correcting Ki ′ values for the effect of substrate concentration according to: [formula]
(§4) 2. Other inhibition data (Ki>>[E]o), the Ki is calculated from using the equations for a competitive inhibitor: [formula]
IC50 is determined by fitting the individual inhibition data point to Sigmoid or four-parameter curve-fit equations.
Human lung tryptase purchased from Cortex Biochem (San Leandro, Calif.) was purified further on a Superdex 200 gel-filtration column. The active-site concentration of the enzyme was determined by spectrophotometric titration with 4-nitrophenyl 4′-guanidinobenzoate according to Schwartz, et al., J. Immunol., 114, 2304-2311 (1990). Tryptase activity was measured according to the procedures of Schwartz, et al., J. Biol. Chem., 261, 7372-7379 (1986) (See also, Schwartz, L. B., Methods In Enzymology, 244, 88 (1994)) with minor modifications, using Tosyl-Gly-Pro-Arg-p-nitroanilide (“GPR-pNA”, Sigma Chemical Co., St. Louis, Mo., T-1637) as a chromogenic substrate. The reaction was performed in 50 mM Tris-HCl, pH 8.0, containing 150 mM NaCl and 0.02% Triton X-100 at 37° C. in Costar ultra-low cluster 96-well microtiter plates (Costar Corning Corp., Cambridge, Mass.). The amount of pNA produced by tryptase was determined by measuring the change in absorbance at 405 nm on a SpectraMAX 340 plate reader (Molecular devices, Sunnyvale, Calif.). The Km for the substrate was determined by Lineweaver-Burk analysis from initial velocities of substrate hydrolysis. The inhibition assay was carried out in a total volume of 200 μL. Tryptase (30 μL-final concentration 1 nM) was incubated with various concentrations of sample compound (50 μL) to be tested in the above assay buffer for 5 min. The reaction was started by the addition of substrate GPR-pNA (40 μL-final concentration 320 μM), and the residual activity was measured after 15 min. of incubation. The inhibition constant, Ki, was determined by fitting the inhibition data to a two-site competitive binding equation using data analysis program GraphPad PRISM (GraphPad Software, Inc., San Diego, Calif.).
(§5) The inhibition constant (Ki) of the test compounds against each proteolytic enzyme was determined according to Zitnik et al., Biochem. Biophys. Res. Commun. 232, 687-697 (1997)).

[2] = target: T2, Bovine pancreatic Trypsin (TPCK-treated) (Bos taurus, UniProt P00760); test: Bovine pancreatic trypsin inhibition, N-α-Benzoyl-L-Arg-pNA substrate
T2 construct: from tissue; host or cells: bovine pancreas
T2 sequence (P00760 24-246): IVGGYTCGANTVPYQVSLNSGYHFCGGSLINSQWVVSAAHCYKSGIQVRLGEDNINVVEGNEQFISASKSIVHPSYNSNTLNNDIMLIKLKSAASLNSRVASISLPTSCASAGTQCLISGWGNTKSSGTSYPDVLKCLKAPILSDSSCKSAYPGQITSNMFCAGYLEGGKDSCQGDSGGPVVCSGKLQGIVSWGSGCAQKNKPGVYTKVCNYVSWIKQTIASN
Method: as §1, §2, §3, §4
C. Bovine Pancreatic Trypsin
Bovine pancreatic Trypsin (TPCK-treated) activity was determined by using N-α-Benzoyl-L-Arg-pNA in 50 mM Tris-HCl, pH 8.2, 20 mM CaCl2 (See Somorin, et al., J. Biochem. 85, 157-162 (1979)).
as §5

[3] = target: T3, Human plasma thrombin (Homo sapiens, UniProt P00734); test: Human plasma thrombin inhibition, H-D-Phe-Pip-Arg-pNA substrate
T3 construct: from tissue; host or cells: human plasma
Method: as §1, §2, §3, §4
Human plasma thrombin activity was determined by using H-D-Phe-Pip-Arg-pNA in 50 mM Tris-HCl, pH 8.3, 100 mM NaCl, 1% BSA (See Lottenberg, et al., Meth. Enzymol. 80, 341-361 (1981)).
as §5

[4] = tryptase 1 nM, GPR-pNA 320 μM, 50 mM Tris-HCl pH 8.0, 37° C.
[5] = 50 mM Tris-HCl, pH 8.2, 20 mM CaCl2
[6] = 50 mM Tris-HCl, pH 8.3, 100 mM NaCl, 1% BSA

Cc1cc2cc(CNC(=O)Cc3ccc4cc(C(=N)N)ccc4c3)ccc2[nH]1 [drawing 17 Naphthalene 2,6-substitution n=1]
pKi ([1]; the 5th table, unit inferred): 8.00 | pKi ([2]; the 5th table, unit inferred): 6.47 | pKi ([3]; the 5th table, unit inferred): < 4.00

N=C(N)c1ccc2[nH]c(CC(=O)Nc3cccc(N)c3)cc2c1 [drawing 14 Indole 5-carboxamidine n=1 m=0]
pKi [1, 4]: 6.41 | pKi [2, 5]: 5.40 | pKi [3, 6]: < 4.00

N=C(N)c1ccc2cc(C(=O)NCc3cccc(N)c3)ccc2c1
pKi [1, 4]: 7.10 | pKi [2, 5]: 5.89 | pKi [3, 6]: < 4.00

CCCNC(=O)Cc1nc2cc(C(=N)N)ccc2[nH]1 [CH2CH2CH3]
pKi [1, 4]: 5.02

N=C(N)c1ccc2[nH]c(CC(=O)NCCc3ccccc3)nc2c1 [X = H n = 2]
pKi [1, 4]: 5.26

N=C(N)c1ccc2[nH]c(CC(=O)Nc3ccccn3)nc2c1 [2-Pyridyl]
pKi [1, 4]: 5.92

N=C(N)c1ccc2[nH]c(CC(=O)Nc3cccc(O)c3)nc2c1 [(3-OH)Ph]
pKi [1, 4]: 6.24 | pKi [2, 5]: 5.06 | pKi [3, 6]: < 4.00

N=C(N)c1ccc2cc(C(=O)Nc3cccc(N)c3)ccc2c1
pKi [1, 4]: 7.26 | pKi [2, 5]: 6.37 | pKi [3, 6]: < 4.00

N=C(N)c1ccc2[nH]c(CC(=O)Nc3ccc4[nH]ccc4c3)nc2c1 [5-Indole]
pKi [1, 4]: 6.09 | pKi [2, 5]: 4.66 | pKi [3, 6]: < 4.00

N=C(N)c1ccc2[nH]c(CC(=O)Nc3ccc4ccccc4c3)nc2c1 [2-Napthyl]
pKi [1, 4]: 5.28

N=C(N)c1ccc2[nH]c(CC(N)=O)nc2c1 [H]
pKi [1, 4]: 4.50

N=C(N)c1ccc2[nH]c(CC(=O)NCc3cccc(N)c3)nc2c1 [CH2Ph(3-Amino)]
pKi [1, 4]: 6.31 | pKi [2, 5]: 5.12 | pKi [3, 6]: < 4.00

N=C(N)c1ccc(NC(=O)Cc2nc3cc(C(=N)N)ccc3[nH]2)cc1 [(4-Amidino)Ph]
pKi [1, 4]: 6.01 | pKi [2, 5]: 5.77 | pKi [3, 6]: < 4.00

CS(=O)(=O)Nc1ccc(NC(=O)Cc2nc3cc(C(=N)N)ccc3[nH]2)cc1 [(4-N(H)SO2CH3)Ph]
pKi [1, 4]: 5.41

N=C(N)c1ccc2[nH]c(CC(=O)NCc3ccccc3)nc2c1 [X = H n = 1]
pKi [1, 4]: 4.66

N=C(N)c1ccc2cc(C(=O)NCc3ccc(N)cc3)ccc2c1
pKi [1, 4]: 6.68 | pKi [2, 5]: 6.23 | pKi [3, 6]: < 4.00

N=C(N)c1ccc2sc(C(=O)NCCc3ccc(N)cc3)cc2c1
pKi [1, 4]: 6.77 | pKi [2, 5]: 5.08 | pKi [3, 6]: < 4.00

N=C(N)c1ccc2[nH]c(CC(=O)NCc3ccc(N)cc3)cc2c1 [drawing 15 Indole 5-carboxamidine n=1 m=1]
pKi [1, 4]: 6.36 | pKi [2, 5]: 5.47 | pKi [3, 6]: 4.19

N=C(N)c1ccc2[nH]c(CC(=O)Nc3ccccc3)nc2c1 [X = H n = 0]
pKi [1, 4]: 5.02

N=C(N)c1ccc2[nH]c(CC(=O)NCc3ccncc3)nc2c1 [CH2(4-Pyridyl)]
pKi [1, 4]: 5.33

N=C(N)c1ccc2[nH]c(CC(=O)Nc3ccc(N)cc3)cc2c1 [drawing 15 Indole 5-carboxamidine n=1 m=0]
pKi [1, 4]: 6.70 | pKi [2, 5]: 5.42 | pKi [3, 6]: < 4.00

N=C(N)c1cccc(NC(=O)Cc2nc3cc(C(=N)N)ccc3[nH]2)c1 [(3-Amidino)Ph]
pKi [1, 4]: 6.28 | pKi [2, 5]: 5.66 | pKi [3, 6]: < 4.00

N=C(N)c1ccc2[nH]c(CC(=O)NC3CCCCC3)nc2c1 [Cyclohexyl]
pKi [1, 4]: 4.43

CNC(=O)Cc1nc2cc(C(=N)N)ccc2[nH]1 [CH3]
pKi [1, 4]: 4.37

CCNC(=O)Cc1nc2cc(C(=N)N)ccc2[nH]1 [CH2CH3]
pKi [1, 4]: 5.13

N#Cc1ccc2[nH]c(Cc3nc4cc(C(=N)N)ccc4[nH]3)nc2c1
pKi [1, 4]: 7.00

N=C(N)c1ccc2[nH]c(CC(=O)Nc3cccc(N)c3)nc2c1 [(3-Amino)Ph]
pKi [1, 4]: 6.54 | pKi [2, 5]: 4.85 | pKi [3, 6]: < 4.00

N=C(N)c1ccc2[nH]c(CC(=O)Nc3ccc4ncccc4c3)nc2c1 [6-Quinoline]
pKi [1, 4]: 6.47 | pKi [2, 5]: 5.34 | pKi [3, 6]: < 4.00

N=C(N)c1ccc2cc(C(=O)NCCc3ccc(N)cc3)ccc2c1
pKi [1, 4]: 6.80 | pKi [2, 5]: 6.02 | pKi [3, 6]: < 4.00

N=C(N)c1ccc2[nH]c(CC(=O)Nc3ccc(S(N)(=O)=O)cc3)nc2c1 [(4-SO2NH2)Ph]
pKi [1, 4]: 5.66

N=C(N)c1ccc2[nH]c(CC(=O)NCCc3ccncc3)nc2c1 [CH2CH2(4-Pyridyl)]
pKi [1, 4]: 5.89

N=C(N)c1ccc2sc(C(=O)NCc3cccc(N)c3)cc2c1
pKi [1, 4]: 6.66 | pKi [2, 5]: 5.04 | pKi [3, 6]: < 4.00

N=C(N)c1ccc2[nH]c(CC(=O)NC3CCN(Cc4ccccc4)CC3)nc2c1 [4-Piperidinyl(N-benzyl)]
pKi [1, 4]: 5.77

N=C(N)c1ccc2[nH]c(CC(=O)NCc3ccc(CN)cc3)nc2c1 [CH2Ph(4-CH2NH2)]
pKi [1, 4]: 5.60

N=C(N)c1ccc2sc(C(=O)NCc3ccc(N)cc3)cc2c1
pKi [1, 4]: 6.36 | pKi [2, 5]: 5.06 | pKi [3, 6]: < 4.00

CS(=O)(=O)Nc1cccc(NC(=O)Cc2nc3cc(C(=N)N)ccc3[nH]2)c1 [(3-N(H)SO2CH3)Ph]
pKi [1, 4]: 5.11

N=C(N)c1ccc2sc(C(=O)Nc3cccc(N)c3)cc2c1
pKi [1, 4]: 6.28 | pKi [2, 5]: 4.85 | pKi [3, 6]: < 4.00

N=C(N)c1ccc2cc(CC(=O)Nc3cccc(N)c3)ccc2c1
pKi [1, 4]: 5.92 | pKi [2, 5]: 5.68 | pKi [3, 6]: < 4.00

N=C(N)c1ccc2sc(CC(=O)NCc3cccc(N)c3)cc2c1
pKi [1, 4]: 7.05 | pKi [2, 5]: 5.19 | pKi [3, 6]: < 4.00

CC(=O)Nc1ccc(NC(=O)Cc2nc3cc(C(=N)N)ccc3[nH]2)cc1 [(4-N(H)COCH3)Ph]
pKi [1, 4]: 5.19

— patent US6362216B1, “Compounds which inhibit tryptase activity” (Array Biopharma Inc., priority 1998, dated 2002)
